“Also recorded” adds a separate entry of the source.

In experiment [1] the test system is primary human myoblasts / myocytes. Nature of the experiment: Etomoxir (CPT1 inhibitor) at different time-windows of myoblast differentiation: cell numbers, Western blot. It is filed as cell-based. In general terms: A western blot detects proteins with antibodies after separation by electrophoresis.
In experiment [2] the test system is human myocytes. Nature of the experiment: Seahorse O2 consumption rates in differentiating myocytes. It is filed as cell-based. Conditions: etomoxir at early 0-12 h and 12-24 h time-windows only. As to the method:
HSKM progenitors were seeded onto Seahorse XF96 Cell Culture Microplate (Agilent), pre-coated with gelatin (0.1%, Merck-Millipore), in growth media at 10,000 cells per well. […] Before performing the Seahorse XF cell Mito Stress Test assay, cell culture media were replaced with assay media (Seahorse XF DMEM Medium, pH 7.4, 2 mM pyruvate, 2 mM glutamine) (Agilent) and incubated in a CO2-free incubator at 37° C. for 1 hour to equilibrate temperature and pH for each well. During the assay, Oligomycin (2 uM, Agilent), FCCP (0.5 uM, Agilent), and a mixture of Antimycin A and Rotenone (0.5 uM, Agilent), were injected sequentially and measurements were taken according to manufacturer's instructions. The data was analyzed using WAVE software.

For experiment [3], the system named is muscle stem cells and myoblasts in gastrocnemius, quadriceps and TA muscle. Nature of the experiment: Stem cell and myoblast activation in skeletal muscles without injury, immunofluorescence 2 days after single bolus. It is filed as in vivo, mice. Conditions: TA muscle, 2 days after intramuscular single bolus. The source says:
(§1) Some tissues were flash frozen for cryosectioning.

Experiment [4] relates to cryoinjured TA muscle. Nature of the experiment: PGI2 bolus in cryoinjured TA muscle: cAMP, PPARs, H3K9ac and myogenic markers. In kind it is in vivo, mice.
Experiment [5] concerns cryoinjured TA muscle. Nature of the experiment: Muscle regeneration after cryoinjury: regenerative index, myogenic proteins, myofiber diameter, grip strength after bolus injection. It is filed as in vivo, mice.
Description: as §1

The subject of experiment [6] is fibrosis in TA muscle, liver, skin and heart of 2-year old mice. Nature of the experiment: Aging-induced fibrosis and fibrotic precursors in 2-year old mice after daily injection. In kind it is in vivo. Conditions: daily injection; for relative changes in the % fibrotic area (Masson trichrome staining) / relative changes in the percentage fraction of fibrotic precursors (PGDFRA-positive and Ki67-positive): 7 days post-injection, 2-year old mice.
Description: as §1

The test system of experiment [7] is primary human myoblasts. Nature of the experiment: Proliferation of primary human myoblasts under PGI2 treatment. In kind it is cell-based.
Experiment [8] relates to pure primary human myoblasts. Nature of the experiment: Pure primary human myoblasts treated with PGI2-related drugs (Western blot, qRT-PCR). It is filed as cell-based.
The mark [9] stands for this setting: TA muscle 1-2 days post-cryoinjury.
The mark [10] stands for this setting: injured TA muscle, single bolus.
Setting [11] is: differentiating myoblasts (24 h post-differentiation).
The mark [12] stands for this setting: pure primary human myoblasts, relative to DMSO.

For `CCOC(=O)[C@@]1(CCCCCCOc2ccc(Cl)cc2)CO1` [etomoxir], the “MHC and MYOG protein phenotype (Western blot)” value in experiment [1] (0-24 h mitochondrial FAO inhibition) is given as “MHC^low; MYOG^low”; in experiment [1] (24 h-48 h mitochondrial FAO inhibition) it was “MHC^low; MYOG^high”; in experiment [1] (48 h-72 h mitochondrial FAO inhibition), “MHC^high; MYOG^low”; in experiment [1] (72 h-96 h mitochondrial FAO inhibition), “MHC^high; MYOG^high”. Also, the “myocyte survival (relative cell numbers)” value in experiment [1] (treatment at 0-24 h and 24-48 h of myoblast differentiation) is “severely compromised myocyte survival”. The O2 consumption rates entry in experiment [2] is listed as “decrease O2 consumption rates”.
For `CCCCC[C@H](O)/C=C/[C@@H]1[C@H]2C/C(=C/CCCC(=O)O)O[C@H]2C[C@H]1O` [PGI2, prostacyclin], in experiment [3] (with or without HGF), the “percentage fraction of proliferative muscle stem cells (Pax7-positive Ki67-positive cells)” value was “significantly increased” and the “percentage fraction of proliferative myoblasts (MyoD-positive Ki67-positive cells)” value is on record as “significantly decreased”. In addition, the “fraction of proliferative muscle stem cells (Pax7-positive Ki67-positive cells)” value in experiment [3] (without injury) is “significantly increased”. Moreover, in experiment [4] (setting [9]), the “H3K9ac levels (Western blot)” value is “increased protein acetylation and especially histone acetylation”; the “PPARA protein (Western blot)” value was “suppresses the increase in PPARA; also recorded: suppressed PPARA protein”; the “PPARD protein (Western blot)” value was “exerts little effect on PPARD”; the “PPARG protein (Western blot)” value was “accelerates the increase in PPARG; also recorded: increased PPARG protein”. Further, the “percentage fraction of PPARG-positive cells (immunofluorescence)” value in experiment [4] (TA muscle 1-2 days post-freeze injury) was “significantly increase PPARG-positive cells”. Further, in experiment [4] (TA muscle 6 days after single bolus), the “abundance of cyclic adenosine monophosphate (cAMP), MALDI-MSI” value is listed as “significantly decreased”. The “committed myoblasts (MyoG-positive Ki67-positive cells, immunofluorescence)” value in experiment [4] (TA muscle over 6 days post-injury (days 2-4), single bolus at 0 h) is given as “significantly increase committed myoblasts; also recorded: significantly increased”. In experiment [4] (setting [10]), the “PPARA and PPARD mRNA expression (qRT-PCR)” value was “not PPARA nor PPARD”; the “PPARG mRNA expression (qRT-PCR)” value is “significantly increase PPARG mRNA expression”; the “Pax7, MyoD, MyoG, Myh3 mRNA expression (qRT-PCR)” value is on record as “significantly increased”. Besides, in experiment [4] (non-injured and injured region of TA muscle, 6 days post-cryoinjury), the “PPARA, PPARD, PPARG, H3K9ac, PAX7, MyoD, MyoG and Myh3 protein expression (Western blot)” value is recorded as “can increase; also recorded: significantly increased all myogenesis markers”. For the same compound, the grip strength entry in experiment [5] (14 days post-injury, 6-week old mice, prostaglandin at 0 h, rosiglitazone at 24 h post-injury) was “partially restore grip strength”. Further, the “hypertrophic growth (myofiber cross-sectional Feret diameters)” value in experiment [5] (TA muscle 6.5 days post-injury, prostaglandin at day 0, rosiglitazone at day 1) is on record as “increase hypertrophic growth”. Besides, the “regenerative index (fraction of nuclei in embryonic MHC-positive myofibers)” value in experiment [5] (TA muscle 6.5 days post-injury, single bolus, combinations: prostaglandin at day 0, rosiglitazone at day 1, relative to DMSO vehicle) was “significantly increase muscle regeneration; also recorded: significantly promoted muscle regeneration”. In experiment [5] (titration of single bolus, TA muscle 6.5 days post-injury), the “optimal PGI2 concentration for muscle regeneration (regenerative index saturated and peaked)” value lay within 6.5 to 13 mM. Also, in experiment [6] (TA muscle), the “relative changes in the % fibrotic area (Masson trichrome staining)” value (“relative changes in the % fibrotic area” below) is given as “partially reverse the aged muscle fibrosis; also recorded: significant reversal of aging-induced fibrosis”; the “relative changes in the percentage fraction of fibrotic precursors (PGDFRA-positive and Ki67-positive)” value is listed as “partially suppress the aged muscle fibrotic precursors”. For the same compound, in experiment [6] (heart tissue), the “relative changes in the % fibrotic area” value is “partially reverse the aged cardiac fibrosis”; the “relative changes in the percentage fraction of fibrotic precursors (PGDFRA-positive and Ki67-positive)” value is “partially suppress the aged cardiac fibrotic precursors”. Also, in experiment [6] (liver tissue), the “relative changes in the % fibrotic area” value is reported as “partially reverse the aged liver fibrosis”; the “relative changes in the percentage fraction of fibrotic precursors (PGDFRA-positive and Ki67-positive)” value is on record as “partially suppress the aged liver fibrotic precursors”. In addition, the “aging-induced fibrosis (fibrotic area) in multiple non-skeletal muscle tissues” value in experiment [6] (liver, skin and heart, 2-year-old mice) is given as “significant reversal of aging-induced fibrosis”. In experiment [6] (skin tissue), the “relative changes in the % fibrotic area” value was “partially reverse the aged skin fibrosis”; the “relative changes in the percentage fraction of fibrotic precursors (PGDFRA-positive and Ki67-positive)” value was “partially suppress the aged skin fibrotic precursors”. Further, in experiment [7] (early passage primary human myoblasts (passage 12)), the proliferation result is “significantly increased proliferation; also recorded: significantly increase the proliferation rate”. Also, the proliferation entry in experiment [7] (late passage primary human myoblasts (passage 18)) is recorded as “significantly increased proliferation; also recorded: significantly increase the proliferation rate”. Besides, in experiment [8] (setting [11]), the “mRNA markers of myoblasts including MyoD1 and Pax3” value is given as “increased”; the “mRNA markers of myogenic differentiation including Myog, Myhc, Myh2, Myh3, Myh7, Myh8, Acta1” value is reported as “sufficient to block committed myocytes from undergoing terminal differentiation; also recorded: decreased”. The “mRNA markers of myogenic differentiation including Myhc, Myh3, Myh8, and Acta1” value in experiment [8] (proliferative myoblasts (24 h pre-differentiation)) is listed as “sufficient to promote proliferative myoblasts to undergo differentiation; also recorded: increased”. Besides, in experiment [8] (setting [12]), the “H3K9ac and MyoD protein (Western blot)” value is “increases; also recorded: followed the same pattern of regulation as PPARG”; the “PPARG protein levels (Western blot)” value is given as “increases PPARG protein; also recorded: stabilize and/or upregulate”.

The values above are taken from patent US20220362262A1, “METHODS AND COMPOSITIONS FOR TISSUE REGENERATION” (Institute of Zoology, Chinese Academy of Sciences, priority 2019, published 2022).
